In patent US12291534B2, “Aminonorbornane derivative and manufacture method therefor and use thereof” (TRANSTHERA SCIENCES (NANJING), INC., priority 2018, dated 2025):

Legend:
TMD-8 = assay: In vitro tumor cell proliferation inhibition (CellTiter-Glo), TMD-8; assay type: cell-based, human
Method: (§1) 2. Experiment on In Vitro Tumor Cell Proliferation Inhibition (1) Method • The tumor cell line (TMD-8/OCY-LY10) was suspended in RPMI1640+FBS10% and cultured in an incubator (37° C. 5% CO2). Cells were passaged periodically, and cells at logarithmic growth phase were collected for plating. • Cell staining was performed with trypan blue and viable cells were counted. • Cell concentration was adjusted to 7000 cells/well with medium. • 90 μL of cell suspension was added to a 96-well plate and cell-free culture medium was added to the blank control wells. • Cells in the 96-well plate were incubated overnight in an incubator (37° C., 5% CO2, 100% relative humidity). • Preparation of 400× compound storage plates: test compounds and reference drug were each dissolved in DMSO and 3× diluted from the highest concentration (400 μM) to the lowest concentration (0.61 μM). • Preparation of 10× compound working solutions: 78 μL of cell culture medium was added to a V-bottom 96-well plate, and 2 μL of the compound was pipetted from the 400× compound storage plate into the 96-well plate. Vehicle control wells and blank control wells were added with 2 μL of DMSO. […] Inhibition rates of compounds at different concentrations were calculated in Excel, followed by plotting the inhibition curves and calculating IC50 values with GraphPad Prism. […]

OCI-LY10 = assay: In vitro tumor cell proliferation inhibition (CellTiter-Glo), OCI-LY10; assay type: cell-based, human
Method: as §1

OCI-LY10 xenograft tumor = OCI-LY10 xenograft tumor model in CB17/SCID mice; assay type: in vivo; conditions: for anti-tumor activity (in words): OCI-LY10 xenograft tumor model
Method: (§2) CB17/SCID female mice with serious immune deficiency were purchased from Beijing Vital River Laboratory Animal Technology Co., Ltd. and bred in SPF animal houses. Human OCI-LY10 cells (Shanghai Junrui-UFBN0102) were cultured in an RPMI 1640 culture medium containing 10% fetal bovine serum, 100 U/mL penicillin and 100 μg/mL streptomycin through monolayer culture in vitro in an incubator (37° C. 5% CO2). Routine treatment was performed twice a week for passaging. At a cell saturation of 80%-90% and a required number, the cells were harvested and counted, 0.2 mL (1×10^7) of OCI-LY10 cells (together with matrigel at a volume ratio of 1:1) were subcutaneously inoculated into the right back of each mouse, and the tumor size could be measured about one week after inoculation. Tumor size was measured using a vernier caliper and tumor volume was calculated using the following formula: tumor volume=(length×width^2)/2.

TMD-8 xenograft tumor = TMD-8 xenograft tumor model in CB17/SCID mice; assay type: in vivo; conditions: for anti-tumor activity (in words): TMD-8 xenograft tumor model
Method: as §2, with “TMD-8” for “OCI-LY10”, “Junrui-UFBN1682)” for “Junrui-UFBN0102)”, “C.,” for “C.”, “volume […].” for “volume=(length×width^2)/2.”

BTK (C481S) = BTK (C481S) (Homo sapiens (Human), UniProt Q06187, C481S); assay: pBTK inhibition in HEK293 cells transfected with BTK(C481S) (ELISA); assay type: cell-based; conditions: 2 h incubation
Method: For positive (high signal) controls, cells were treated with 0.5% DMSO alone.

BTK (C481S), sequence (Q06187 whole entry C481S): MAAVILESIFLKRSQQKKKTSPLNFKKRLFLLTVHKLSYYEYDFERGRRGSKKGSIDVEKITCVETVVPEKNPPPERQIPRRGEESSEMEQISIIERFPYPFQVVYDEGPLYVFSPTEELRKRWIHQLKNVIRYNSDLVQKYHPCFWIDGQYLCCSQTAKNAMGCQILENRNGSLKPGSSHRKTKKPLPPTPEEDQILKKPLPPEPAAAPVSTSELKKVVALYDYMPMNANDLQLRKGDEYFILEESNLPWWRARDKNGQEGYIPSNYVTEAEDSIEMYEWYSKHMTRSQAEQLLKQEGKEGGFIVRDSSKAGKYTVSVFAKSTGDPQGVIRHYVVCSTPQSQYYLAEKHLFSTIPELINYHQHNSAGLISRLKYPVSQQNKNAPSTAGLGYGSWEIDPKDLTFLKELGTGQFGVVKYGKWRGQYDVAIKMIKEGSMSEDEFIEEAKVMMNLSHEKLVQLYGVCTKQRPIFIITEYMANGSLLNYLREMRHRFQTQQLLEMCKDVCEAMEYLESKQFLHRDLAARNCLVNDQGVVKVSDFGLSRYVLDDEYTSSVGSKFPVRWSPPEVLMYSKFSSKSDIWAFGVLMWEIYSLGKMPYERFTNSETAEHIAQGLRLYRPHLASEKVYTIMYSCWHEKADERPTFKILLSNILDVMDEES

Row | Compound | inhibition of tumor cell proliferation (in words) (TMD-8) | inhibition of tumor cell proliferation (in words) (OCI-LY10) | anti-tumor activity (in words) (OCI-LY10 xenograft tumor) | anti-tumor activity (in words) (TMD-8 xenograft tumor) | IC50 (BTK (C481S)) | disappearance of xenograft tumors (OCI-LY10 xenograft tumor; 25 mg/kg bid, after 28 days of administration) | disappearance of xenograft tumors (OCI-LY10 xenograft tumor; 50 mg/kg bid, after 21 days of administration) | tolerance of tumor-bearing mice (OCI-LY10 xenograft tumor; all dosages (25, 50 mg/kg bid)) | body weight of tumor-bearing mice (OCI-LY10 xenograft tumor; all treatment groups) | fraction of xenograft tumors disappeared (TMD-8 xenograft tumor; 50 mg/kg bid, after 27 days of administration) | tolerance of tumor-bearing mice (TMD-8 xenograft tumor; all dosages (25, 50 mg/kg bid)) | body weight of tumor-bearing mice (TMD-8 xenograft tumor; all treatment groups)
1 | C=CC(=O)N1CCC[C@@H](n2nc(-c3ccc(Oc4ccccc4)cc3)c3c(N)ncnc32)C1 [Ibrutinib, reference compound] | strong inhibition activity | strong inhibition activity | extremely strong anti-tumor activity | extremely strong anti-tumor activity | – | – | – | – | – | – | – | –
2 | Nc1nccn2c(C34CCC(NC(=O)CN5CCOCC5)(CC3)C4)nc(-c3ccc(C(=O)Nc4cc(C(F)(F)F)ccn4)cc3)c12 [Compound A-10-10, 4-(8-amino-3-(4-(2-morpholinoacetamido)bicyclo[2.2.1]heptan-1-yl)imidazo[1,5-a]pyrazin-1-yl)-N-(4-(trifluoromethyl)pyridin-2-yl)benzamide] | strong inhibition activity | strong inhibition activity | extremely strong anti-tumor activity | extremely strong anti-tumor activity | 63 nM | disappeared completely | completely disappeared | good tolerance | no significant weight loss | ⅝ | good tolerance | no significant weight loss
